Test results from PubChem BioAssay (NCI).
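GI50 = concentration required for 50% inhibition of growth. TGI: concentration producing complete growth inhibition.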

Legend:
Test in all cases: NCI tumour cell line growth inhibition, 384-well format
[1] = tested on: UO-31 renal
[2] = tested on: SN12C renal
[3] = tested on: M14 melanoma
[4] = tested on: COLO 205 colon
[5] = tested on: NCI/ADR-RES ovarian
[6] = tested on: MDA-MB-468 breast
[7] = tested on: SR leukemia
[8] = tested on: HCT-15 colon
[9] = tested on: NCI-H322M lung
[10] = tested on: OVCAR-3 ovarian
[11] = tested on: NCI-H23 lung
[12] = tested on: HL-60(TB) leukemia
[13] = tested on: HS 578T breast
[14] = tested on: SK-MEL-5 melanoma
[15] = tested on: SF-539 CNS
[16] = tested on: HOP-92 NSCLC
[17] = tested on: UACC-257 melanoma
[18] = tested on: MDA-MB-231 breast
[19] = tested on: MOLT-4 leukemia
[20] = tested on: SK-MEL-28 melanoma
[21] = tested on: SNB-75 CNS
[22] = tested on: KM12 colon
[23] = tested on: HCT-116 colon
[24] = tested on: SNB-19 CNS
[25] = tested on: HT29 colon
[26] = tested on: MALME-3M melanoma
[27] = tested on: BT-549 breast
[28] = tested on: SK-OV-3 ovarian
[29] = tested on: DU-145 prostate
[30] = tested on: HCC-2998 colon
[31] = tested on: NCI-H522 lung
[32] = tested on: 786-0 renal
[33] = tested on: NCI-H460 NSCLC
[34] = tested on: ACHN renal
[35] = tested on: NCI-H226 lung
[36] = tested on: OVCAR-4 ovarian
[37] = tested on: OVCAR-5 ovarian
[38] = tested on: SF-295 CNS
[39] = tested on: LOX IMVI melanoma
[40] = tested on: A549 NSCLC
[41] = tested on: T-47D breast
[42] = tested on: UACC-62 melanoma
[43] = tested on: OVCAR-8 ovarian
[44] = tested on: HOP-62 NSCLC
[45] = tested on: TK-10 renal
[46] = tested on: SW-620 colon
[47] = tested on: PC-3 prostate

CC(=O)N1CCC(Nc2cc(C(=O)NC[C@H](O)CN3CCc4ccccc4C3)ncn2)CC1
GI50 [1]: > 100 µM
TGI [1]: > 100 µM
GI50 [2]: > 100 µM
TGI [2]: > 100 µM
GI50 [3]: > 100 µM
TGI [3]: > 100 µM
GI50 [4]: > 100 µM
TGI [4]: > 100 µM
GI50 [5]: > 100 µM
TGI [5]: > 100 µM
GI50 [6]: 29.5 µM
TGI [6]: > 100 µM
GI50 [7]: 0.183 µM
TGI [7]: > 100 µM
GI50 [8]: > 100 µM
TGI [8]: > 100 µM
GI50 [9]: > 100 µM
TGI [9]: > 100 µM
GI50 [10]: > 100 µM
TGI [10]: > 100 µM
GI50 [11]: > 100 µM
TGI [11]: > 100 µM
GI50 [12]: > 100 µM
TGI [12]: > 100 µM
GI50 [13]: > 100 µM
TGI [13]: > 100 µM
GI50 [14]: > 100 µM
TGI [14]: > 100 µM
GI50 [15]: > 100 µM
TGI [15]: > 100 µM
GI50 [16]: > 28.1 µM
TGI [16]: > 100 µM
GI50 [17]: > 100 µM
TGI [17]: > 100 µM
GI50 [18]: > 100 µM
TGI [18]: > 100 µM
GI50 [19]: < 0.0138 µM
TGI [19]: 0.0854 µM
GI50 [20]: > 100 µM
TGI [20]: > 100 µM
GI50 [21]: > 100 µM
TGI [21]: > 100 µM
GI50 [22]: > 100 µM
TGI [22]: > 100 µM
GI50 [23]: > 100 µM
TGI [23]: > 100 µM
GI50 [24]: > 100 µM
TGI [24]: > 100 µM
GI50 [25]: > 100 µM
TGI [25]: > 100 µM
GI50 [26]: > 100 µM
TGI [26]: > 100 µM
GI50 [27]: > 100 µM
TGI [27]: > 100 µM
GI50 [28]: > 100 µM
TGI [28]: > 100 µM
GI50 [29]: > 100 µM
TGI [29]: > 100 µM
GI50 [30]: > 100 µM
TGI [30]: > 100 µM
GI50 [31]: > 100 µM
TGI [31]: > 100 µM
GI50 [32]: > 100 µM
TGI [32]: > 100 µM
GI50 [33]: 1.9 µM
TGI [33]: > 100 µM
GI50 [34]: > 100 µM
TGI [34]: > 100 µM
GI50 [35]: > 100 µM
TGI [35]: > 100 µM
GI50 [36]: 4.44 µM
TGI [36]: > 100 µM
GI50 [37]: > 100 µM
TGI [37]: > 100 µM
GI50 [38]: > 100 µM
TGI [38]: > 100 µM
GI50 [39]: > 100 µM
TGI [39]: > 100 µM
GI50 [40]: > 100 µM
TGI [40]: > 100 µM
GI50 [41]: 0.658 µM
TGI [41]: > 100 µM
GI50 [42]: > 100 µM
TGI [42]: > 100 µM
GI50 [43]: > 100 µM
TGI [43]: > 100 µM
GI50 [44]: > 100 µM
TGI [44]: > 100 µM
GI50 [45]: > 100 µM
TGI [45]: > 100 µM
GI50 [46]: > 35.6 µM
TGI [46]: > 100 µM
GI50 [47]: > 100 µM
TGI [47]: > 100 µM
